Measurements from patent publication US7655665B2, “Nitromethylene derivatives and their use” (East China University of Science and Technology, priority 2004, dated 2010).

How the values were obtained:
Aphis craccivoral = test: Insecticidal activity against Aphis craccivoral by immersing (dipping aphids on bean sprout); format: in vivo; conditions: 23° C.
How it was run: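 Wingless adult A. craccivora feeding on bean sprouts dipped 5 seconds in compound at 500 ug/mL (0.2 mL/L Triton X-100 aqueous), then held at 23 °C. Mortality counted after 24 hours, three replicates, vehicle-only control.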

Nilaparvata lugens = test: Insecticidal activity against Nilaparvata lugens (planthopper) by spraying; format: in vivo; conditions: 500 ppm; for mortality (%) (500 ppm) Nilaparvata lugens: spraying 2 ml, counted after 24 hours; for mortality (%) (500 ppm) Nilaparvata-lugens: spraying 2 ml per tumbler, killed counted after 24 hours
How it was run: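 Ten planthoppers per tumbler were introduced 6 hours before spraying with 2 ml of test solution, with clean water as blank control. Each treatment had 3 replicates, and three series were run. Mortality was counted after 24 hours.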

[1] = 500 ppm, immersing (dipped 5 seconds), counted after 24 hours
[2] = 500 ppm (500 ug/mL dilution), dipped 5 seconds, killed aphis counted after 24 hours

Row | SMILES | mortality (%) (500 ppm) Aphis (Aphis craccivoral; [1]) | mortality (%) (500 ppm) Nilaparvata lugens (Nilaparvata lugens) | mortality (%) (500 ppm) Aphis (Aphis craccivoral; [2]) | mortality (%) (500 ppm) Nilaparvata-lugens (Nilaparvata lugens)
1 | CCC(C)SC1CCC([N+](=O)[O-])=C2N(Cc3ccc(Cl)nc3)CCN21 (stereo not shown) [Compound 141] | 56% | 89% | – | –
2 | C=CCOC1CCC([N+](=O)[O-])=C2N(Cc3ccc(Cl)nc3)CCN21 (racemic) [Compound 19] | 35% | 78% | – | –
3 | COCCN=C1CCC([N+](=O)[O-])=C2N(Cc3ccc(Cl)nc3)CCN12 [Compound 199] | – | – | 16% | 36%
4 | CC(C)(C)OC1CCC([N+](=O)[O-])=C2N(Cc3cnc(Cl)s3)CCN21 (racemic) [Compound 34] | 100% | 100% | – | –
5 | CSC1CCC([N+](=O)[O-])=C2N(Cc3ccc(Cl)nc3)CCN21 (stereo not shown) [Compound 132] | 100% | 100% | – | –
6 | CC(C)COC1CCC([N+](=O)[O-])=C2N(Cc3cnc(Cl)s3)CCCN21 (stereo not shown) [Compound 94] | 8% | 3% | – | –
7 | CCC(C)OC1CCC([N+](=O)[O-])=C2N(Cc3cnc(Cl)s3)CCN21 (mixture of isomers) [Compound 33] | 24% | 56% | – | –
8 | CC(C)(C)CSC1CCC([N+](=O)[O-])=C2N(Cc3ccc(Cl)nc3)CCN21 (stereo not shown) [Compound 147] | 56% | 99% | – | –
9 | CCCCN=C1CCC([N+](=O)[O-])=C2N(Cc3cnc(Cl)s3)CCCN12 [Compound 224] | – | – | 45% | 66%
10 | C#CCOC1CCC([N+](=O)[O-])=C2N(Cc3ccc(Cl)nc3)CCN21 (racemic) [Compound 20] | 39% | 56% | – | –
11 | CC(C)SC1CCC([N+](=O)[O-])=C2N(Cc3cnc(Cl)s3)CCN21 (stereo not shown) [Compound 176] | – | – | 78% | 98%
12 | CC(C)N=C1CCC([N+](=O)[O-])=C2N(Cc3cnc(Cl)s3)CCN12 [Compound 219] | – | – | 34% | 45%
13 | CCCCOC1CCC([N+](=O)[O-])=C2N(Cc3cnc(Cl)s3)CCN21 (racemic) [Compound 31] | 56% | 35% | – | –
14 | C=CCOC1CCC([N+](=O)[O-])=C2N(Cc3cnc(Cl)s3)CCN21 (racemic) [Compound 41] | 89% | 100% | – | –
15 | O=C(OC1CCC([N+](=O)[O-])=C2N(Cc3ccc(Cl)nc3)CCN21)c1ccc(F)cc1 (stereo not shown) [Compound 123] | 56% | 100% | – | –
16 | O=[N+]([O-])C1=C2N(CC3CCOC3)CCN2C(OCC(F)(F)F)CC1 (stereo not shown) [Compound 49] | 45% | 32% | – | –
17 | O=C(OC1CCC([N+](=O)[O-])=C2N(Cc3cnc(Cl)s3)CCN21)c1cc(F)c(F)cc1F (stereo not shown) [Compound 166] | – | – | 0% | 45%
18 | N=C1CCC([N+](=O)[O-])=C2N(Cc3ccc(Cl)nc3)CCN12 [Compound 188] | – | – | 55% | 67%
19 | CCCOC1CCC([N+](=O)[O-])=C2N(Cc3cnc(Cl)s3)CCCN21 (stereo not shown) [Compound 90] | 34% | 51% | – | –

Row | SMILES | mortality (%) (500 ppm) Aphis (Aphis craccivoral; [1]) | mortality (%) (500 ppm) Nilaparvata lugens (Nilaparvata lugens) | mortality (%) (500 ppm) Aphis (Aphis craccivoral; [2]) | mortality (%) (500 ppm) Nilaparvata-lugens (Nilaparvata lugens)
20 | CC(C)CSC1CCC([N+](=O)[O-])=C2N(Cc3cnc(Cl)s3)CCN21 (stereo not shown) [Compound 179] | – | – | 12% | 56%
21 | CC(C)CCSC1CCC([N+](=O)[O-])=C2N(Cc3cnc(Cl)s3)CCN21 (stereo not shown) [Compound 183] | – | – | 23% | 34%
22 | COCCOC1CCC([N+](=O)[O-])=C2N(Cc3ccc(Cl)nc3)CCN21 (racemic) [Compound 21] | 100% | 100% | – | –
23 | CCCC(C)OC1CCC([N+](=O)[O-])=C2N(Cc3cnc(Cl)s3)CCN21 (mixture of isomers) [Compound 38] | 35% | 67% | – | –
24 | O=C(OC1CCC([N+](=O)[O-])=C2N(Cc3ccc(Cl)nc3)CCN21)c1ccc(Cl)c(Cl)c1 (stereo not shown) [Compound 131] | 3% | 0% | – | –
25 | CC(C)CSC1CCC([N+](=O)[O-])=C2N(Cc3ccc(Cl)nc3)CCN21 (stereo not shown) [Compound 140] | 67% | 78% | – | –
26 | CC(C)(OC1CCC([N+](=O)[O-])=C2N(CC3CCOC3)CCN21)C(Cl)(Cl)Cl (stereo not shown) [Compound 57] | 34% | 38% | – | –
27 | O=[N+]([O-])C1=C2N(Cc3cnc(Cl)s3)CCCN2C(=NCCCl)CC1 [Compound 223] | – | – | 5% | 76%
28 | O=[N+]([O-])C1=C2N(CC3CCOC3)CCCN2C(O)CC1 (stereo not shown) [Compound 99] | 6% | 7% | – | –
29 | CC(C)(C)OC1CCC([N+](=O)[O-])=C2N(CC3CCOC3)CCCN21 (stereo not shown) [Compound 110] | 67% | 98% | – | –
30 | COCCOC1CCC([N+](=O)[O-])=C2N(CC3CCOC3)CCN21 (stereo not shown) [Compound 66] | 100% | 100% | – | –
31 | CN=C1CCC([N+](=O)[O-])=C2N(Cc3ccc(Cl)nc3)CCCN12 [Compound 202] | – | – | 89% | 98%
32 | O=C(OC1CCC([N+](=O)[O-])=C2N(Cc3cnc(Cl)s3)CCN21)c1ccccn1 (stereo not shown) [Compound 160] | 4% | 8% | – | –
33 | O=C(OC1CCC([N+](=O)[O-])=C2N(Cc3cnc(Cl)s3)CCN21)c1cc(F)c(F)c(F)c1F (stereo not shown) [Compound 167] | – | – | 12% | 4%
34 | O=C(OC1CCC([N+](=O)[O-])=C2N(Cc3ccc(Cl)nc3)CCN21)c1cccnc1 (stereo not shown) [Compound 120] | 1% | 5% | – | –
35 | O=C(OC1CCC([N+](=O)[O-])=C2N(Cc3ccc(Cl)nc3)CCN21)c1cc(F)c(Cl)cc1Cl (stereo not shown) [Compound 125] | 67% | 92% | – | –
36 | CS(=O)(=O)OC1CCC([N+](=O)[O-])=C2N(Cc3ccc(Cl)nc3)CCN21 (stereo not shown) [Compound 117] | 19% | 65% | – | –
37 | CCC(C)OC1CCC([N+](=O)[O-])=C2N(CC3CCOC3)CCN21 (stereo not shown) [Compound 55] | 45% | 12% | – | –
38 | CC(C)(C)CN=C1CCC([N+](=O)[O-])=C2N(Cc3ccc(Cl)nc3)CCN12 [Compound 198] | – | – | 39% | 89%
